In US20120010158A1, “TUMOR NECROSIS FACTOR INHIBITING PEPTIDES AND USES THEREOF” (PANACEA BIOTEC LTD., priority 2008, published 2012):
Residues, ends and D or L forms follow the SMILES beside them.

Key:
[1] = molecular target: T1, TNF-alpha (Homo sapiens, UniProt P01375); test: Inhibition of TNF-alpha mediated cytotoxicity of L-929 cells (crystal violet)
Description: (§2) The peptides of the present invention were analyzed for inhibition of TNF-alpha induced cytotoxicity employing murine fibroblast cell line, L929. Addition of TNF-alpha to L929 cells (ATCC) induces cytotoxicity, which can be estimated by staining of viable cells with vital dyes like MTT (3-(4,5-Dimethylthiazol-2-yl)-2,5-diphenyltetrazolium bromide, a tetrazole) or crystal violet followed by extraction of dyes with methanol. […] The assay was performed as follows:
(§3) L929 cells (maintained in Dulbecco's modified Eagle's medium supplemented with 10% FCS) were seeded at a density of 2×10^5 cells/ml in a microtitre plates, and incubated with actinomycin D (ACT-D) at concentration of 1 μg/ml for 2 h at 37° C. and 5% CO2. TNF-α (100 pg/ml) preincubated with 75 μM of peptide solution at 37° C. was added to L929 cells and incubated overnight at 37° C., 5% CO2. […]
(§4) The live cells of test and positive control plates were then stained with 100 μl/well of 0.05% crystal violet and incubated at room temperature for 15 min., washed with PBS and kept for overnight drying at room temperature. Crystal violet was extracted from the cells by 100 μl per well of methanol and absorbance of extracted crystal violet dye was estimated at 595 nm. Percent inhibition in cytotoxicity was calculated by the following formula: […]

[2] = tested on: adjuvant induced arthritis; test: Rat model of adjuvant induced arthritis; format: in vivo, Wistar rats; details: 2.5 mg/kg once every day for 6 days, then 3 doses every alternate day; for clinical score: p<0.05, score 0-4, FIG. 9b; for paw thickness: vs PBS treated arthritic rats, FIG. 9a
Description: In vivo efficacy of peptide with sequence ID-6 was evaluated in a rat model of “adjuvant” induced arthritis. This model is widely used for developing and testing anti-inflammatory drugs. Adjuvant arthritis (AA) in rats mimics features of inflammatory arthritis in humans (Pearson et al, 1956, Proc. Soc. Exp. Biol. Med. 112:95-10). AA was induced in male Wistar rats by intradermal immunization with 150 μg of complete freunds adjuvant followed by a booster immunization at day 7 with incomplete freunds adjuvant. Arthritis was evaluated in animals by clinical scoring and measurement of paw and joint thickness using digital vernier calipers. The clinical score was assigned according to following criteria: 0=no erythema or swelling 1=slight erythema or swelling of one of toes or fingers 2=erythema and swelling of more than one toe or finger 3=erythema and swelling of the ankle or wrist 4=complete erythema and swelling of toes or fingers and ankle or wrist and inability to bend the ankle or wrist. Arthritic rats were administered with peptide Sequence ID-6 at a dose of 2.5 mg/kg, once every day for 6 days in the first week followed by 3 doses every alternate day in the second week. Another group of arthritic animals received Etanercept (Et) in similar manner.

[3] = tested on: collagen induced arthritis; test: Murine model of collagen induced arthritis; format: in vivo, C57BL/6 mice; details: for anticollagen IgG1/IgG2a ratio after therapy: vs PBS treated arthritic animals, FIG. 8b
Description: Male C57BL/6 mice obtained from animal house at Lalru, Panacea Biotec were used to develop a murine model of rheumatoid arthritis. Mice were intradermally immunized with 150 μg of chicken type-II collagen (Sigma) emulsified in complete Freunds adjuvant (CFA) (Sigma). On day 17 after primary immunization, a booster immunization with 100 μg of chick type II collagen in incomplete Freunds adjuvant was administered to animals (Ethan M Shevach, Curr. Prot. Immunol. 2002: 15.0.1-15.0.6; Inglis J et al, 2008 Nature Protocols, 4:612-618). Increase in paw thickness as compared to controls (healthy, male C57BL/6 mice) and presence of anti-collagen IgG antibodies were the parameters to assess development of arthritis. Paw thickness in animals was measured using digital Vernier Calipers and anticollagen antibodies were measured in the mouse serum on day 35 after immunization.
Chicken type-II collagen (sigma) was coated onto ELISA plates at 1 μg/ml in PBS and incubated overnight at 4° C. After three washes in PBS-0.05% Tween 20 (PBS-T), serum from collagen, vehicle (CFA) and PBS (control) injected mice was added to separate wells at dilution of 1:100. Plate was incubated at room temperature for 2 h. After 5 washes in PBS-T rabbit antimouse IgG HRP (Bethyl Laboratories) was added to wells at 1:10000 dilutions and incubated at room temperature for 45 min. After washing the plate in PBS-T, OPD (ortho-phenyl diamine) as substrate was added and colour development observed. Colour development was stopped by 2N HCl. Absorbance was recorded at 490 nm (Ethan M Shevach, Cum Prot. Immunol. 2002: 15.0.1-15.0.6).
Determination of optimum dose and schedule of peptide with Sequence ID-6 was performed in a murine model of collagen induced arthritis (as prepared above). Arthritic mice were randomized according to paw thickness and divided into separate groups of 4-5 animals for intravenous administration of peptide sequence ID-6.
Efficacy of peptide with sequence ID-6 and sequence ID-2 was compared with Etanercept (Marketed and approved TNF-alpha inhibiting agent with the brand name “Enbrel”) using a murine model of collagen induced arthritis (As prepared and described above). Peptides of Sequence ID-6, Sequence ID-2 and Etanercept were intravenously administered to the arthritic mice at a dose of 5 mg/kg three times in first week followed by once every week for three weeks.
Development of disease in collagen induced arthritis is accompanied by an increase in Th1 or proinflammatory response. IgG1/IgG2a levels were measured to determine that whether treatment with the peptides of the present invention and Etanercept improved clinical disease in murine model by decreasing Th1 response. Lower IgG1/IgG2a ratio would indicate down regulation of Th1 or proinflammatory response.

[4] = molecular target: T2, TNF-R1 (Homo sapiens, UniProt P19438); test: Binding of peptide to TNF-R1 on U937 cells by flow cytometry; details: untreated 83%
T2 construct: endogenous in cells; host or cells: U937
T2 sequence (P19438 30-455): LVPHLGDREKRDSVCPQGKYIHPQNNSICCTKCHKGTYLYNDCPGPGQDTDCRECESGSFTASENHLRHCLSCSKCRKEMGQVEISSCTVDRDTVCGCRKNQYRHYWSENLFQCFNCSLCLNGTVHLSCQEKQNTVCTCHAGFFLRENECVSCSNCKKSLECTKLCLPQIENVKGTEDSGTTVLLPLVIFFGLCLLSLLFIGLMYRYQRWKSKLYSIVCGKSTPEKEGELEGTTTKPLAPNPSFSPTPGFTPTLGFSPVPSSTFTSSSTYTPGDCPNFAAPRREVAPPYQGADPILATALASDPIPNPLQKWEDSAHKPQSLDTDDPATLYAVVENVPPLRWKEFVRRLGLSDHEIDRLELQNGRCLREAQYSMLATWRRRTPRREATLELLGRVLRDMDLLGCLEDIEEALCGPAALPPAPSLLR
Description: (§1) Flow cytometry assay technique was used to investigate binding of peptides to TNF-α or TNF-R1 employing U937 cells (a TNF-receptor expressing human leukemia cell line). Binding of peptide to TNF-α prevents TNF-α from interacting with TNF-R1 which can be analyzed by flow cytometry. Similarly, direct binding of peptide with TNF-R1 reduces percent TNF-R1 positive cells which can be analyzed by flow cytometry.
U937 cells were used to quantify the binding of peptides to TNF-R 1. TNF-alpha upon addition to U937 cells binds to its cognate receptor TNF-R1 on U937 cells leading to a reduction in percent cells positive for TNF-R1. TNF-alpha inhibiting peptides according to present invention bind to TNF-R1 and reduce the TNF-R1 positive cells after incubation of U937 cells with said peptides.
Peptide of Sequence ID-6 was analyzed for binding of peptide to TNF-R1 on U937 cells using flow cytometry. […] After two washes in binding buffer, the cells were analyzed using FACS Calibur flow cytometer (Becton Dickinson). The gates were set on the live cell population, and the degree of binding to TNF-R1 was calculated on the basis of percent cells positive for TNF-RI expression.

[5] = molecular target: T1, TNF-alpha
Description: as §2, §3, §4

[6] = molecular target: T1, TNF-alpha; test: Inhibition of TNF-α binding to its receptor TNF-R1 on U937 cells (flow cytometry); set-up: host or cells: U937 cells carry the partner receptor endogenously; details: U937 cells with complex of peptide and TNF-alpha (5 ng); untreated 78±1%, TNF-alpha alone 32±10%
Description: as §1
TNF-alpha binds to its cognate receptor TNF-R1 on U937 cells (ATCC) leading to a reduction in percent cells positive for TNF-R1. TNF-alpha binding peptides bind to TNF-alpha and prevent the interaction of TNF-alpha with TNF-R1. The percent cells positive for TNF-R1 can be quantified by staining with fluorochrome conjugated anti-TNF-R1 antibody.
Peptides of Sequence ID-2 and Sequence ID-6 were analyzed for inhibition of TNF-alpha binding to its receptor TNF-R1 on U937 cells. Inhibition of TNF-alpha binding to TNF-RI on U937 cells by peptides with sequence ID-2 or sequence ID-6 was estimated, using fluorescent activated cell sorter (FACS, FACSCALIBUR, Becton Dickinson, USA). […]

[7] = 5 mg/kg i.v. three times in first week then once every week for three weeks, pre vs post treatment, Example 5(d), FIG. 8a
[8] = 5 mg/kg i.v. three times in first week then once every week for three weeks

T1 sequence (P01375 77-233 limits assumed, species assumed): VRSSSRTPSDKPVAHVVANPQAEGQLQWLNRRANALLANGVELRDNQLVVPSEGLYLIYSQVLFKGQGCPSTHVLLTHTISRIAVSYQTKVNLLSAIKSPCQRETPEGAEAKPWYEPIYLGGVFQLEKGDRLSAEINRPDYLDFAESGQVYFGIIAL

Molecule | clinical score [2] | paw thickness [2] | paw thickness [3, 7] | anticollagen IgG1/IgG2a ratio after therapy [3, 8] | also measured
CC(C)C[C@@H]1NC(=O)[C@H](Cc2ccc(O)cc2)NC(=O)[C@H](CCC(N)=O)NC(=O)[C@H](CO)NC(=O)[C@H](Cc2c[nH]c3ccccc23)NC(=O)[C@@H](NC(=O)[C@@H](N)Cc2ccc(O)cc2)CSSC[C@@H](C(=O)N[C@@H](Cc2ccc(O)cc2)C(=O)O)NC1=O [Cyclic WSQYL, cy Trp-Ser-Gln-Tyr-Leu CY] | – | – | – | – | inhibition at 75 µM [1]: 60 ± 10%
Etanercept [reference compound] | significant lowering of clinical score | Lowering of paw thickness | significant lowering of paw thickness | lower ratio of IgG1/IgG2a | –
TNF-alpha | – | – | – | – | percent cells positive for TNF-R1 ([4]; U937 cells incubated with recombinant TNF-alpha 10 ng): 31.6%
NC(=O)C[C@H](NC(=O)[C@@H](N)CO)C(=O)N[C@@H](Cc1ccc(O)cc1)C(=O)O [Sequence ID-6, Ser--Asn--Tyr] (H-Ser-Asn-Tyr-OH; N-terminus assumed) | significant lowering of clinical score | Lowering of paw thickness | significant lowering of paw thickness | lower ratio of IgG1/IgG2a | ability to inhibit TNF-alpha induced cytotoxicity compared with Etanercept [5]: comparable ability; percent cells positive for TNF-R1 ([4]; U937 cells incubated with peptide 250 μM): 32%; percent cells positive for TNF-R1 [6]: 57±8%; paw thickness ([3]; 5 mg/kg i.v. thrice weekly followed by once every week for 3 wks, Example 5(c), FIG. 7): significant reduction of paw thickness; paw thickness ([3]; 7.5 mg/kg i.v. once every week for 4 wks, Example 5(c), FIG. 7): insignificant lowering of paw thickness
